Experimental data published in patent US20110028566A1, “COMPOSITIONS AND PRODUCTS CONTAINING CYCLOALIPHATIC DIOL ANTIMICROBIAL AGENTS AND METHODS OF USING THE COMPOSITIONS AND PRODUCTS” (EASTMAN CHEMICAL COMPANY, priority 2009, published 2011).

Tests used:
Experiment in all cases: Microbial challenge testing in BPW
Assay type in all cases: cell-based
[1] = tested on: Pseudomonas aeruginosa; details: BPW, w/v % in label, average of replicates; for Grade code, P. aeruginosa, 3 Days: 3 days incubation; for Grade code, P. aeruginosa, 13 Days: 13 days incubation; for Grade code, P. aeruginosa, 30 Days: 30 days incubation
Protocol: (§1) The microorganisms used in challenge tests are given in Table 3, designated as either ATCC (American Type Culture Collection) or wild type. These wild type organisms were problematic organisms previously isolated from chemical products. In the description for each organism, the bacteria are indicated as either GN (Gram negative) or GP (Gram positive).
(§2) All of the microorganisms were grown in Tryptose Soy Broth (TSB), DIFCO™ available from Becton, Dickinson and Company, containing 1% dextrose. Aspergillus niger and Candida albicans were incubated at 22° C.±2° C. for at least 96 hours. All bacteria were incubated at 35° C.±2° C. in a humidified incubator for at least 96 hours.
(§3) The following procedure was followed to determine the amount of each challenge material (inoculum broth) required to produce a 10^8 cfu/mL challenge, which is equivalent to a final test-sample microbial concentration of 10^5 to 10^6 cfu (colony-forming units)/mL.
(§4) Using a sterile serological pipette, 1 mL of the growth from each TSB culture was transferred into tubes containing 9 mL phosphate buffer (pH 7.2) and mixed thoroughly. This process was repeated to make serial 1:10 dilutions. Then 0.1 mL of each sample and dilution was inoculated onto agar plates to produce the equivalent of a further 1:10 dilution. C. albicans and A. niger were inoculated onto SDA and bacteria were inoculated onto Plate Count Agar (PCA), DIFCO™ available from Becton, Dickinson and Company. The 0.1 mL aliquots were evenly distributed on the plates using the spread-plate technique. The spread-plate technique is performed by spreading the aliquot over the entire plate surface using a sterile spreading rod while rotating the plate with a rotary auto-plater. After the inoculum was absorbed completely, each plate was inverted and incubated (fungi at 22° C.±2° C. and bacteria at 35° C.±2° C.).
(§5) After incubation for at least 48 hours, colonies that had developed on the agar plates were counted and recorded with the corresponding dilution. If counting had to be delayed temporarily, plates were refrigerated, preferably no more than 24 hours, until they could be counted. The number of cfu/mL was determined by multiplying the count by the dilution factor for that particular plate.
(§6) Turbidity in Nepholemetric Turbidity Units (NTU) was measured for each serial dilution using the HF-Micro 100 Model Turbidimeter. For each microorganism, the plate counts were compared to the turbidity readings.
(§7) Control substrates (“broth alone”) were prepared for each microorganism separately in triplicate by adding 13.5 mL of BPW (pH 7.0) containing 1% (w/v) dextrose to each 20-mL glass tube; then adding 1.5 mL challenge material to produce a final concentration at time zero of 10^5 to 10^6 cfu/mL and a total volume of 15 mL.
(§8) Test sample substrates were prepared containing each test material (1,4-CHDM, etc) or combination of test materials at the concentrations shown in Tables 5 and 6. Sample substrates were prepared in triplicate, except those substrates containing PE or CG which were prepared in duplicate. Substrates were prepared by adding BPW containing 1% (w/v) dextrose to each 20-mL glass tube, then adding the test material in the amount appropriate to achieve the desired weight/volume percent (g/100 mL) and to obtain a total volume of BPW with dextrose and test material of 13.5 mL. Then 1.5 mL challenge material was added to produce a final concentration at time zero of 10^5 to 10^6 cfu/mL of the respective organism and a total test sample substrate volume of 15 mL.
(§9) After mixing, all challenged substrates were incubated at 35° C.±2° C. for 14 days and then at ambient room temperature.

[2] = tested on: Bacillus subtilis; details: for Grade code, B. subtilis, 3 Day / Grade code, B. subtilis, 14 Day / Grade code, B. subtilis, 30 Days: BPW, w/v % in label, average of replicates
Protocol: as §1, §2, §3, §4, §5, §6, §7, §8, §9

[3] = tested on: Burkholderia cepacia
Protocol: as §1, §2, §3, §4, §5, §6, §7, §8, §9

OCC1CCC(CO)CC1 (stereo not shown) [1,4-CHDM, 1,4-cyclohexanedimethanol]
Grade code, P. aeruginosa, 3 Days ([1]; listed as 0.5% AB): 4 (1001 to 10,000 colonies (thus 10,000 cfu/mL to 100,000 cfu/mL))
Grade code, P. aeruginosa, 3 Days ([1]; listed as 1.25% AB): 4 (1001 to 10,000 colonies (thus 10,000 cfu/mL to 100,000 cfu/mL))
Grade code, P. aeruginosa, 3 Days ([1]; listed as 2.5% AB): 3 (101 to 1000 colonies (thus 1000 to 10,000 cfu/mL))
Grade code, P. aeruginosa, 13 Days ([1]; listed as 0.5% AB): 4 (1001 to 10,000 colonies (thus 10,000 cfu/mL to 100,000 cfu/mL))
Grade code, P. aeruginosa, 13 Days ([1]; listed as 1.25% AB): 3 (101 to 1000 colonies (thus 1000 to 10,000 cfu/mL))
Grade code, P. aeruginosa, 13 Days ([1]; listed as 2.5% AB): 2 (52 to 100 colonies counted (thus 520 to 1000 cfu/mL))
Grade code, P. aeruginosa, 30 Days ([1]; listed as 0.5% AB): 4 (1001 to 10,000 colonies (thus 10,000 cfu/mL to 100,000 cfu/mL))
Grade code, P. aeruginosa, 30 Days ([1]; listed as 1.25% AB): 4 (1001 to 10,000 colonies (thus 10,000 cfu/mL to 100,000 cfu/mL))
Grade code, P. aeruginosa, 30 Days ([1]; listed as 2.5% AB): 0 (No growth detected or <1 colony (thus <10 cfu/mL))
Grade code B. subtilis ([2]; 0.5%, 3 days incubation): 4 (1001 to 10,000 colonies (thus 10,000 cfu/mL to 100,000 cfu/mL))
Grade code B. subtilis ([2]; 0.5%, 14 days incubation): 4 (1001 to 10,000 colonies (thus 10,000 cfu/mL to 100,000 cfu/mL))
Grade code B. subtilis ([2]; 0.5%, 30 days incubation): 4 (1001 to 10,000 colonies (thus 10,000 cfu/mL to 100,000 cfu/mL))
Grade code B. subtilis ([2]; 1.25%, 3 days incubation): 4 (1001 to 10,000 colonies (thus 10,000 cfu/mL to 100,000 cfu/mL))
Grade code B. subtilis ([2]; 1.25%, 14 days incubation): 4 (1001 to 10,000 colonies (thus 10,000 cfu/mL to 100,000 cfu/mL))
Grade code B. subtilis ([2]; 1.25%, 30 days incubation): 4 (1001 to 10,000 colonies (thus 10,000 cfu/mL to 100,000 cfu/mL))
Grade code B. subtilis ([2]; 2.5%, 3 days incubation): 3 (101 to 1000 colonies (thus 1000 to 10,000 cfu/mL))
Grade code B. subtilis ([2]; 2.5%, 14 days incubation): 2 (52 to 100 colonies counted (thus 520 to 1000 cfu/mL))
Grade code B. subtilis ([2]; 2.5%, 30 days incubation): 1 (1 to 51 colonies counted (thus 10 to 510 cfu/mL))
Grade code, B. subtilis, 3 Day ([2]; 3 days incubation, listed as 0.5% AB): 4 (1001 to 10,000 colonies (thus 10,000 cfu/mL to 100,000 cfu/mL))
Grade code, B. subtilis, 3 Day ([2]; 3 days incubation, listed as 1.25% AB): 4 (1001 to 10,000 colonies (thus 10,000 cfu/mL to 100,000 cfu/mL))
Grade code, B. subtilis, 3 Day ([2]; 3 days incubation, listed as 2.5% AB): 3 (101 to 1000 colonies (thus 1000 to 10,000 cfu/mL))
Grade code, B. subtilis, 14 Day ([2]; 14 days incubation, listed as 0.5% AB): 4 (1001 to 10,000 colonies (thus 10,000 cfu/mL to 100,000 cfu/mL))
Grade code, B. subtilis, 14 Day ([2]; 14 days incubation, listed as 1.25% AB): 4 (1001 to 10,000 colonies (thus 10,000 cfu/mL to 100,000 cfu/mL))
Grade code, B. subtilis, 14 Day ([2]; 14 days incubation, listed as 2.5% AB): 2 (52 to 100 colonies counted (thus 520 to 1000 cfu/mL))
Grade code, B. subtilis, 30 Days ([2]; 30 days incubation, listed as 0.5% AB): 4 (1001 to 10,000 colonies (thus 10,000 cfu/mL to 100,000 cfu/mL))
Grade code, B. subtilis, 30 Days ([2]; 30 days incubation, listed as 1.25% AB): 4 (1001 to 10,000 colonies (thus 10,000 cfu/mL to 100,000 cfu/mL))
Grade code, B. subtilis, 30 Days ([2]; 30 days incubation, listed as 2.5% AB): 1 (1 to 51 colonies counted (thus 10 to 510 cfu/mL))
Grade code B. cepacia ([3]; 0.5%, 3 days incubation): 4 (1001 to 10,000 colonies (thus 10,000 cfu/mL to 100,000 cfu/mL))
Grade code B. cepacia ([3]; 0.5%, 14 days incubation): 4 (1001 to 10,000 colonies (thus 10,000 cfu/mL to 100,000 cfu/mL))
Grade code B. cepacia ([3]; 0.5%, 30 days incubation): 4 (1001 to 10,000 colonies (thus 10,000 cfu/mL to 100,000 cfu/mL))
Grade code B. cepacia ([3]; 1.25%, 3 days incubation): 4 (1001 to 10,000 colonies (thus 10,000 cfu/mL to 100,000 cfu/mL))
Grade code B. cepacia ([3]; 1.25%, 14 days incubation): 2 (52 to 100 colonies counted (thus 520 to 1000 cfu/mL))
Grade code B. cepacia ([3]; 1.25%, 30 days incubation): 4 (1001 to 10,000 colonies (thus 10,000 cfu/mL to 100,000 cfu/mL))
Grade code B. cepacia ([3]; 2.5%, 3 days incubation): 0 (No growth detected or <1 colony (thus <10 cfu/mL))
Grade code B. cepacia ([3]; 2.5%, 14 days incubation): 0 (No growth detected or <1 colony (thus <10 cfu/mL))
Grade code B. cepacia ([3]; 2.5%, 30 days incubation): 0 (No growth detected or <1 colony (thus <10 cfu/mL))
Grade code, B. cepacia, 3 Days ([3]; BPW, 3 days incubation, w/v % in label, average of replicates, listed as 0.5% AB): 4 (1001 to 10,000 colonies (thus 10,000 cfu/mL to 100,000 cfu/mL))
Grade code, B. cepacia, 3 Days ([3]; BPW, 3 days incubation, w/v % in label, average of replicates, listed as 1.25% AB): 4 (1001 to 10,000 colonies (thus 10,000 cfu/mL to 100,000 cfu/mL))
Grade code, B. cepacia, 3 Days ([3]; BPW, 3 days incubation, w/v % in label, average of replicates, listed as 2.5% AB): 0 (No growth detected or <1 colony (thus <10 cfu/mL))
Grade code, B. cepacia, 14 Days ([3]; BPW, 14 days incubation, w/v % in label, average of replicates, listed as 0.5% AB): 4 (1001 to 10,000 colonies (thus 10,000 cfu/mL to 100,000 cfu/mL))
